± gives the expanded uncertainty stated by the source.
How the values were obtained:
[1] = Liquid; for mass density: 298.15 K, 101.33 kPa, Vibrating tube method; for Normal boiling temperature: Ebulliometric method (Recirculating still)
[2] = refractive index (Na D-line) (dimensionless); conditions: 298.15 K; 101.33 kPa; Liquid; Standard Abbe refractometry

mass density [1] [kg/m3]	Normal boiling temperature [1] [°C]	refractive index [2]	Compound
872.25 ± 0.24	199.10 ± 0.2	1.4205 ± 0.0007	CCCCC(CC)COC(C)=O (stereo not drawn) [2-ethylhexyl acetate]
1049.42 ± 0.08	118.1 ± 1	1.3713 ± 0.0007	CC(=O)O [acetic acid]
–	100.1 ± 1	1.3324 ± 0.0007	O [water]

Reference: the NIST ThermoML archive (doi:10.1016/j.fluid.2014.07.032)
